Here are results for 25 compounds from patent publication US5001156A, “Lipophilic quaternary ammonium salicylates, their use in cosmetics and in dermopharmacy” (priority 1986, dated 1991).

Some results are limits rather than exact numbers.

In this test the test system is Propionibacterium acnes strain ATCC 6919. The test can be described thus: Minimal Inhibitory Concentration (MIC) by the dilution method.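 Note: MIC reported in µg/ml.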 The following applies: Propionibacterium acnes ATCC 6919, DMSO. Type of test: cell-based.
`CCCCCCCCCCCC(=O)c1ccc(O)c(C(=O)[O-])c1.CCCCCCCCCCCCCCCC[N+]12CCN(CC1)CC2` [Compound 23, 1'-azonia-4'-azabicyclo[2.2.2]octylhexadecane 5-dodecanoylsalicylate] displayed an MIC of 1.5 µg/mL.
With “N-benzyl-N,N-dimethyl-N-hexadecylammonium 5-octanoylsalicylate [Compound 10]” the figure was 0.54 µg/mL; with “N-hexadecyl-N-methylimidazolinium 5-dodecanoylsalicylate [Compound 20]”, 13.5 µg/mL; with “N-hexadecyl-N,N,N-trimethylammonium 5-octanoylsalicylate [Compound 4]”, 8 µg/mL.
With “N-hexadecyl-N,N-dimethyl-N-(β-hydroxyethyl)ammonium 5-decanoylsalicylate [Compound 14]” the figure was 3.6 µg/mL; with “N-methyl-N-octylpiperidinium 5-dodecanoylsalicylate [Compound 22]”, 4.9 µg/mL.
For `CC(C)(C)CC(C)(C)c1ccc(OCCOCC[N+](C)(C)Cc2ccccc2)cc1.CCCCCCCC(=O)c1ccc(O)c(C(=O)[O-])c1` [Compound 24, benzethonium 5-octanoylsalicylate] the value was 1.2 µg/mL.
The compound “trimethyl-(β-hydroxyethyl)ammonium 5-dodecanoylsalicylate [Compound 18]” had an MIC of 4.8 µg/mL.
For “N-dodecyl-N-methylmorpholinium 5-decanoylsalicylate [Compound 21]” the value was 9 µg/mL; for “trimethyl-(β-hydroxyethyl)ammonium 5-decanoylsalicylate [Compound 17]”, 11 µg/mL.
With “Hexadecyltrimethylammonium stearate [Compound 3, reference compound]” the figure was 25 µg/mL.
With “N-benzyl-N,N-dimethyl-N-hexadecylammonium 5-decanoylsalicylate [Compound 11]” the figure was 1.5 µg/mL; with “N-hexadecylpyridinium 5-decanoylsalicylate sesquihydrate [Compound 8]”, 1.2 µg/mL.
Compound “N-hexadecyl-N,N,N-trimethylammonium 5-decanoylsalicylate [Compound 5]” came in with an MIC of 2.3 µg/mL.
In turn, “dimethylethyldodecylammonium 5-decanoylsalicylate [Compound 16]” had an MIC of 6.2 µg/mL.
With “N-Hexadecyl-N,N,N-trimethylammonium salicylate [Compound 1, reference compound]” the figure was 21 µg/mL; with “Hexadecyltrimethylammonium laurate [Compound 2, reference compound]”, 26 µg/mL; with `CC(C)(C)CC(C)(C)c1ccc(OCCOCC[N+](C)(C)Cc2ccccc2)cc1.CCCCCCCCCCCC(=O)c1ccc([O-])c(C(=O)O)c1` [Compound 25, benzethonium 5-dodecanoylsalicylate], 2 µg/mL.
Consider “N-benzyl-N,N,N-trimethylammonium 5-decanoylsalicylate [Compound 13]”, for which the MIC was determined as 3.2 µg/mL.
With “N-hexadecylpyridinium 5-octanoylsalicylate monohydrate [Compound 7]” the figure was 2.4 µg/mL; with `CCCCCCCCCCCC(=O)c1ccc(O)c(C(=O)[O-])c1.C[N+](C)(C)C` [Compound 15, N,N,N,N-tetramethylammonium 5-dodecanoylsalicylate], 2.5 µg/mL; with “N-benzyl-N,N-dimethyl-N-hexadecylammonium 5-dodecanoylsalicylate [Compound 12]”, 1 µg/mL.
With “N-hexadecylpyridinium 5-dodecanoylsalicylate hydrate [Compound 9]” the figure was 1.2 µg/mL; with “N-hexadecyl-N,N,N-trimethylammonium 5-dodecanoylsalicylate [Compound 6]”, 3.2 µg/mL.
“N-(2-Hydroxyethyl)-N,N,N-trimethylammonium salicylate [Compound 19, reference compound]” registered an MIC above 100 µg/mL.
